Reference: US11168073B2, “3,3-difluoroallylamines or salts thereof and pharmaceutical compositions comprising the same” (YUHAN CORPORATION, priority 2018, dated 2021)
Structures can show the parent of a compound that is named as a salt.

What was measured:
Format in all cases: biochemical
[1] = target: T1, recombinant human MAO-B (monoamine oxidase-B) (Homo sapiens, UniProt P27338); test: Activity evaluation on recombinant human MAO-B (Amplex Red/HRP-coupled assay, 1 mM benzylamine substrate); details: 1 mM benzylamine, read-out: Inhibitory Activity (IC50, nM) MAO-B
T1 construct: purchased Sigma-Aldrich
T1 sequence (P27338 1-520): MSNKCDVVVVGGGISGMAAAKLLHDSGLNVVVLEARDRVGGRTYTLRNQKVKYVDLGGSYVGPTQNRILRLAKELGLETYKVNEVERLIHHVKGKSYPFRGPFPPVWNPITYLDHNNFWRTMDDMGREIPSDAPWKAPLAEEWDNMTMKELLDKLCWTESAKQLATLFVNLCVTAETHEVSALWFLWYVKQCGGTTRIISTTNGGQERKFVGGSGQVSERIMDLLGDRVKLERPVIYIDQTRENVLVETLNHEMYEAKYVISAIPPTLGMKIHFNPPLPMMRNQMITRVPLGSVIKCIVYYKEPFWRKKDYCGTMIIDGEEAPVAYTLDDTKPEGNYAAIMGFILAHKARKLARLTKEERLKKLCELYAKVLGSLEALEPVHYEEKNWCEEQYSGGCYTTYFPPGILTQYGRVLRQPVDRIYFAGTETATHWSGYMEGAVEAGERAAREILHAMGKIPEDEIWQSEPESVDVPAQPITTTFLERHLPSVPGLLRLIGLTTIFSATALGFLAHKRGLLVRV
Method in brief: (§1)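 Enzyme was preincubated with compounds (8-point 1:3 series, final DMSO <1%) 30 min at 37 °C in 50 mM sodium phosphate pH 7.4, then given 200 uM Amplex Red and 1 U/mL HRP with substrate. H2O2-derived resorufin fluorescence (ex 544/em 590 nm) was followed over 1–2 h; IC50 came from 4-parameter logistic fits of signal-rate inhibition versus DMSO control.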

recombinant human VAP-1 = target: T2, recombinant human VAP-1 (Homo sapiens, UniProt Q16853); test: Activity evaluation on recombinant human VAP-1 (Amplex Red/HRP-coupled hydrogen peroxide assay, benzylamine substrate); details: recombinant human VAP-1; 30 min preincubation at 37° C.; 1 mM benzylamine; read-out: Inhibitory Activity (IC50, nM) human VAP-1
T2 construct: purchased R&D systems
T2 sequence (Q16853 1-763): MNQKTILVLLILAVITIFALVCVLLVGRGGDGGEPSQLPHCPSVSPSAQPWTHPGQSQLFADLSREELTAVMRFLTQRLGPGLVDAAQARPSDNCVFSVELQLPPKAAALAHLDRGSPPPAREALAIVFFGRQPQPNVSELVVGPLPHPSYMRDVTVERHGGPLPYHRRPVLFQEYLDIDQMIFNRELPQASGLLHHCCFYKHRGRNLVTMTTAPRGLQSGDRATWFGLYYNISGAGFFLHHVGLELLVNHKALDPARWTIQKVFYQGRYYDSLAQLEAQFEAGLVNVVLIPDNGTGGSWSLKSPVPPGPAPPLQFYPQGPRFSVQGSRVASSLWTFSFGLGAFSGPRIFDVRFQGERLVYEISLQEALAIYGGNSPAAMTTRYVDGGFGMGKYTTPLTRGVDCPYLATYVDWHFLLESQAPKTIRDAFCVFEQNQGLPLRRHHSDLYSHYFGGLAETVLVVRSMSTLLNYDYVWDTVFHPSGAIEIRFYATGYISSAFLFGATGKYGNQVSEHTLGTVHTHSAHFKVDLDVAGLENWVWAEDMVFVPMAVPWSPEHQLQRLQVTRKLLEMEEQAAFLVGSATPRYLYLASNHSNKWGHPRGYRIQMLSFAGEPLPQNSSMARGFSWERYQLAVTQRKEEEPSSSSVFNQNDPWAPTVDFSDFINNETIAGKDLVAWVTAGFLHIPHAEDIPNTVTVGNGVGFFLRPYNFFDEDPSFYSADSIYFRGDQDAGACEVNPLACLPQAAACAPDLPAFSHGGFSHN
Method in brief: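 Recombinant human VAP-1 in 50 mM sodium phosphate pH 7.4 preincubated 30 min at 37 °C with compound (8-point 1:3 series, <1% DMSO), then 1 mM benzylamine, 200 uM Amplex Red, 1 U/mL HRP added. H2O2-derived resorufin fluorescence (ex 544/em 590) followed 1–2 h; IC50 from four-parameter fit of rate inhibition.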

[2] = target: T3, recombinant human DAO (diamine oxidase) (Homo sapiens, UniProt P19801); test: Activity evaluation on recombinant human DAO (Amplex Red/HRP-coupled assay, 1 mM putrescine substrate); details: 1 mM putrescine, read-out: Inhibitory Activity (IC50, nM) DAO
T3 construct: purchased R&D systems
T3 sequence (P19801 20-751): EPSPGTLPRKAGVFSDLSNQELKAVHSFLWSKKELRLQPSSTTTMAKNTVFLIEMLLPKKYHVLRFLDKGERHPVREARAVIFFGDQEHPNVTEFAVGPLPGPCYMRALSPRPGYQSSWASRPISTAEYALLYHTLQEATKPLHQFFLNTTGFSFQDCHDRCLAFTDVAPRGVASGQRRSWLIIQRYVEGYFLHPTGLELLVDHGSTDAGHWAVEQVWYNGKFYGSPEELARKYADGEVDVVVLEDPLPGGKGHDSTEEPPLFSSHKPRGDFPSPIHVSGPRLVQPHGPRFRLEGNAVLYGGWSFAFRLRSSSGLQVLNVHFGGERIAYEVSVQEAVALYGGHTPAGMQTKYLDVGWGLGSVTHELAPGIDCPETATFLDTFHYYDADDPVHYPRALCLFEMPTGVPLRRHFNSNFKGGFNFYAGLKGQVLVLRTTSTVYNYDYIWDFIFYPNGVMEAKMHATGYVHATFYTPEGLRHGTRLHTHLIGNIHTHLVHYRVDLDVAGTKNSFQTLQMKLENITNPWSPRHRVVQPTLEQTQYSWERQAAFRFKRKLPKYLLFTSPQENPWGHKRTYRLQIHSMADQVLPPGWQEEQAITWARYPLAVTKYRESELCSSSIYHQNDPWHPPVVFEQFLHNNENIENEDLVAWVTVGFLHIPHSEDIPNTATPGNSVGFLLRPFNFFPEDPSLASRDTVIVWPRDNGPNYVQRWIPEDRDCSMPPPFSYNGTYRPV
Method in brief: as §1

[3] = target: T4, recombinant human MAO-A (monoamine oxidase-A) (Homo sapiens, UniProt P21397); test: Activity evaluation on recombinant human MAO-A (Amplex Red/HRP-coupled assay, 0.5 mM tyramine substrate); details: 0.5 mM tyramine, read-out: Inhibitory Activity (IC50, nM) MAO-A
T4 construct: purchased Sigma-Aldrich
T4 sequence (P21397 1-527): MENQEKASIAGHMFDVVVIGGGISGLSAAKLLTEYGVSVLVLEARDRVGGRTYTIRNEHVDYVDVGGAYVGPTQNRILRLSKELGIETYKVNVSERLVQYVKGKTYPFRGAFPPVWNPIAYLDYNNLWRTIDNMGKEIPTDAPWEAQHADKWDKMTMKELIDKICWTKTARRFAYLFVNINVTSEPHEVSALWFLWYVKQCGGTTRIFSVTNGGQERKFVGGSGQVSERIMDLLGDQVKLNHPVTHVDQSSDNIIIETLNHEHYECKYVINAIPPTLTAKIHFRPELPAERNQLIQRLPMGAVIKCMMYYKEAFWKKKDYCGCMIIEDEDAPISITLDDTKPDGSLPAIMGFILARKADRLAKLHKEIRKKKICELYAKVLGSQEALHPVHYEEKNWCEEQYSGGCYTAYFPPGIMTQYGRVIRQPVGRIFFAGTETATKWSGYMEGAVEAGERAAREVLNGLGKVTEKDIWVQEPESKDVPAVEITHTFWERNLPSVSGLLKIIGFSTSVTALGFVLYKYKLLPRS
Method in brief: as §1

SMILES | IC50 [1] [nM] | IC50 (recombinant human VAP-1) [nM] | IC50 [2] [nM] | IC50 [3] [nM]
NCC(Cn1ncn(-c2ccc(-c3ccc4c(c3)OCO4)cc2F)c1=O)=C(F)F [Example 35, 2-[2-(aminomethyl)-3,3-difluoro-allyl]-4-[4-(1,3-benzodioxol-5-yl)-2-fluoro-phenyl]-1,2,4-triazol-3-one Trifluoroacetate] | 33 | 0.3 | 540 | > 100000
Cc1cc(-c2ccc(-n3cnn(CC(CN)=C(F)F)c3=O)c(F)c2)cc2c1NC(=O)CC2 [Example 36, 6-[4-[1-[2-(aminomethyl)-3,3-difluoro-allyl]-5-oxo-1,2,4-triazol-4-yl]-3-fluoro-phenyl]-8-methyl-3,4-dihydro-1H-quinolin-2-one Trifluoroacetate] | 160 | 0.1 | 97 | > 100000
CCn1cc(-c2ccc(-n3cnn(CC(CN)=C(F)F)c3=O)c(F)c2)cn1 [Example 37, 2-[2-(aminomethyl)-3,3-difluoro-allyl]-4-[4-(1-ethylpyrazol-4-yl)-2-fluoro-phenyl]-1,2,4-triazol-3-one Trifluoroacetate] | 880 | 0.5 | 860 | > 100000
CS(=O)(=O)c1ccc(-c2ccc(-n3cnn(CC(CN)=C(F)F)c3=O)cn2)cc1 [Example 38, 2-[2-(aminomethyl)-3,3-difluoro-allyl]-4-[6-(4-methylsulfonylphenyl)-3-pyridyl]-1,2,4-triazol-3-one Trifluoroacetate] | 450 | 0.4 | 24 | > 100000
NCC(Cn1ncn(-c2ccc(-c3ccc(N4CCNCC4)cc3)nc2)c1=O)=C(F)F [Example 39, 2-[2-(aminomethyl)-3,3-difluoro-allyl]-4-[6-(4-piperazin-1-ylphenyl)-3-pyridyl]-1,2,4-triazol-3-one Ditrifluoroacetate] | 46000 | 1.2 | 310 | > 100000
NCC(Cn1ncn(-c2ccc(-c3ccc(C(F)(F)F)nc3)nc2)c1=O)=C(F)F [Example 40, 2-[2-(aminomethyl)-3,3-difluoro-allyl]-4-[6-[6-(trifluoromethyl)-3-pyridyl]-3-pyridyl]-1,2,4-triazol-3-one Trifluoroacetate] | 200 | 0.3 | 12 | > 100000
CN(C)c1ccc(-c2ccc(-n3cnn(CC(CN)=C(F)F)c3=O)cn2)cn1 [Example 41, 2-[2-(aminomethyl)-3,3-difluoro-allyl]-4-[6-[6-(dimethylamino)-3-pyridyl]-3-pyridyl]-1,2,4-triazol-3-one Trifluoroacetate] | 470 | 0.2 | 120 | > 100000
NCC(Cn1ncn(-c2ccc(-c3ccc4c(c3)OCO4)nc2)c1=O)=C(F)F [Example 42, 2-[2-(aminomethyl)-3,3-difluoro-allyl]-4-[6-(1,3-benzodioxol-5-yl)-3-pyridyl]-1,2,4-triazol-3-one Trifluoroacetate] | 34 | 0.3 | 250 | > 100000
Cc1cc(-c2ccc(-n3cnn(CC(CN)=C(F)F)c3=O)cn2)cc2c1NC(=O)CC2 [Example 43, 6-[5-[1-[2-(aminomethyl)-3,3-difluoro-allyl]-5-oxo-1,2,4-triazol-4-yl]-2-pyridyl]-8-methyl-3,4-dihydro-1H-quinolin-2-one Trifluoroacetate] | 100 | 0.2 | 22 | > 100000
CN1C(=O)CCc2cc(-c3ccc(-n4cnn(CC(CN)=C(F)F)c4=O)cn3)ccc21 [Example 44, 6-[5-[1-[2-(aminomethyl)-3,3-difluoro-allyl]-5-oxo-1,2,4-triazol-4-yl]-2-pyridyl]-1-methyl-3,4-dihydroquinolin-2-one Trifluoroacetate] | 110 | 0.3 | 14 | > 100000
CCn1cc(-c2ccc(-n3cnn(CC(CN)=C(F)F)c3=O)cn2)cn1 [Example 45, 2-[2-(aminomethyl)-3,3-difluoro-allyl]-4-[6-(1-ethylpyrazol-4-yl)-3-pyridyl]-1,2,4-triazol-3-one Trifluoroacetate] | 410 | 0.2 | 200 | > 100000
CS(=O)(=O)c1ccc(-c2cccc(-n3cnn(CC(CN)=C(F)F)c3=O)n2)cc1 [Example 46, 2-[2-(aminomethyl)-3,3-difluoro-allyl]-4-[6-(4-methylsulfonylphenyl)-2-pyridyl]-1,2,4-triazol-3-one Trifluoroacetate] | > 100000 | 0.9 | 190 | > 100000
NCC(Cn1ncn(-c2cccc(-c3ccc(N4CCNCC4)cc3)n2)c1=O)=C(F)F [Example 47, 2-[2-(aminomethyl)-3,3-difluoro-allyl]-4-[6-(4-piperazin-1-ylphenyl)-2-pyridyl]-1,2,4-triazol-3-one Ditrifluoroacetate] | > 100000 | 3.5 | 1900 | > 100000
